Source: publication PMC6198068, “Discovery of a Novel Nav1.7 Inhibitor From Cyriopagopus albostriatus Venom With Potent Analgesic Efficacy” (Frontiers in Pharmacology, 2018)
Where a SMILES comes first, the peptide text is derived from it. Bridges are numbered along the chain shown (N, C = ends).

Tests used:
[1] = biological target: T1, Nav1.7 (Homo sapiens, UniProt Q15858); test: I–V relationships and voltage-dependent activation of Nav1.7; format: cell-based; settings: 0.2 μM, n = 10
T1 construct: expressed in transfected cells; host or cells: HEK293T
Text: (§1) The cDNA genes encoding rat Nav1.4 and human Nav1.7 were subcloned into vectors pRGB4 and pcDNA3.1-mod, respectively. Mutations of rNav1.4 (N655D, Q657E, and N655D/Q657E) and hNav1.7 (D816N, E818Q, and D816N/E818Q) were constructed using the Gene Tailor Site-Directed Mutagenesis system (Invitrogen, Carlsbad, CA, United States), according to the manufacturer’s instructions. Nav1.2–Nav1.7 and mutant plasmids together with eGFP were transiently transfected into HEK293T cells while Nav1.8 together with eGFP was transiently transfected into ND7/23 cells by Lipofectamine 2000 (Invitrogen, Carlsbad, CA, United States). Additionally, plasmids β1- and β2-eGFP encoding the human β1 and β2 subunits, respectively, were co-transfected with those encoding WT Nav1.7 and Nav1.7 mutations in HEK293T cells. […] Cells with green fluorescent protein fluorescence were selected for whole-cell patch-clamp recordings 24 h after transfection.
(§2) Whole-cell patch-clamp recordings were performed at room temperature (20–25°C) using an EPC 10 USB Patch Clamp Amplifier (HEKA, Elektronik, Lambrecht, Germany). […] Data was analyzed by software Igo Pro 6.10A (WaveMetrics, Lake Oswego, OR, United States), SigmaPlot 10.0 (Sigma-Aldrich, St. Louis, MO, United States), OriginPro 8 (OriginLab Corp., Northampton, MA, United States), and GraphPad Prism 5 (GraphPad Software, San Diego, CA, United States). […]

[2] = Adverse effects at the doses used in the mouse pain models; format: in vivo, ICR mice; settings: dose of Ca2a used in this study (50–200 μg/kg i.p.)
Description: (§3) The ICR mice (18–22 g) used in this study were purchased from the Experimental Animal Center of SLac-kinda (Changsha, China). The animals were maintained at 20–25°C and freely allowed to standard rodent chow and water ad libitum. Ethical approval for in vivo experiments in animals was approved by the Animal Care and Use Committee (ACUC) at the Hunan Province Animal Management Office (HPAMO).

[3] = test system: hot plate test in mice; test: Hot plate test; format: in vivo, ICR mice; settings: 55 ± 1°C, 30 min after injection, control 10.6 ± 1.1 s, mean ± SEM, n = 6–8
Description: as §3
According to a previous method ([Meng et al., 2017]), a hot plate apparatus (model YLS-21A, Jinan, China) maintained at 55 ± 1°C, was used to measure the pain threshold of mice subjected to a thermal stimulus. Each female mouse was placed on hot plate to observe its pain response (hind-paw-licking or jumping) acted as its own control. The mice whose latent response times were shorter than 5 s or longer than 30 s were excluded from the test.

[4] = biological target: T2, Nav1.7/D816N (Homo sapiens, UniProt Q15858, D827N); test: Fast inactivation kinetics in Nav1.7/D816N channel; format: cell-based; settings: 0.2 µM; between -10 mV and +10 mV; n = 7
T2 construct: expressed in transfected cells; host or cells: HEK293T
Text: as §1, with “States).” for “States). Additionally, plasmids β1- and β2-eGFP encoding the human β1 and β2 subunits, respectively, were co-transfected with those encoding WT Nav1.7 and Nav1.7 mutations in HEK293T cells.”
as §2
Fast inactivation time constants were calculated by fitting current decay traces with a single exponential function using the I–V protocol described above. […]

T1 sequence (O60939 30-215): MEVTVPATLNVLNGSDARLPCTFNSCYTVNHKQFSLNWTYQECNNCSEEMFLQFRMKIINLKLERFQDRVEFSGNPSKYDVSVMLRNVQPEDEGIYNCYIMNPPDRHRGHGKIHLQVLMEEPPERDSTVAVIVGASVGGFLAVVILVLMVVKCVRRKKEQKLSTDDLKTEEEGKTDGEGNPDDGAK
T1 sequence (Q15858 other isoform, or with tags, fused parts or gaps): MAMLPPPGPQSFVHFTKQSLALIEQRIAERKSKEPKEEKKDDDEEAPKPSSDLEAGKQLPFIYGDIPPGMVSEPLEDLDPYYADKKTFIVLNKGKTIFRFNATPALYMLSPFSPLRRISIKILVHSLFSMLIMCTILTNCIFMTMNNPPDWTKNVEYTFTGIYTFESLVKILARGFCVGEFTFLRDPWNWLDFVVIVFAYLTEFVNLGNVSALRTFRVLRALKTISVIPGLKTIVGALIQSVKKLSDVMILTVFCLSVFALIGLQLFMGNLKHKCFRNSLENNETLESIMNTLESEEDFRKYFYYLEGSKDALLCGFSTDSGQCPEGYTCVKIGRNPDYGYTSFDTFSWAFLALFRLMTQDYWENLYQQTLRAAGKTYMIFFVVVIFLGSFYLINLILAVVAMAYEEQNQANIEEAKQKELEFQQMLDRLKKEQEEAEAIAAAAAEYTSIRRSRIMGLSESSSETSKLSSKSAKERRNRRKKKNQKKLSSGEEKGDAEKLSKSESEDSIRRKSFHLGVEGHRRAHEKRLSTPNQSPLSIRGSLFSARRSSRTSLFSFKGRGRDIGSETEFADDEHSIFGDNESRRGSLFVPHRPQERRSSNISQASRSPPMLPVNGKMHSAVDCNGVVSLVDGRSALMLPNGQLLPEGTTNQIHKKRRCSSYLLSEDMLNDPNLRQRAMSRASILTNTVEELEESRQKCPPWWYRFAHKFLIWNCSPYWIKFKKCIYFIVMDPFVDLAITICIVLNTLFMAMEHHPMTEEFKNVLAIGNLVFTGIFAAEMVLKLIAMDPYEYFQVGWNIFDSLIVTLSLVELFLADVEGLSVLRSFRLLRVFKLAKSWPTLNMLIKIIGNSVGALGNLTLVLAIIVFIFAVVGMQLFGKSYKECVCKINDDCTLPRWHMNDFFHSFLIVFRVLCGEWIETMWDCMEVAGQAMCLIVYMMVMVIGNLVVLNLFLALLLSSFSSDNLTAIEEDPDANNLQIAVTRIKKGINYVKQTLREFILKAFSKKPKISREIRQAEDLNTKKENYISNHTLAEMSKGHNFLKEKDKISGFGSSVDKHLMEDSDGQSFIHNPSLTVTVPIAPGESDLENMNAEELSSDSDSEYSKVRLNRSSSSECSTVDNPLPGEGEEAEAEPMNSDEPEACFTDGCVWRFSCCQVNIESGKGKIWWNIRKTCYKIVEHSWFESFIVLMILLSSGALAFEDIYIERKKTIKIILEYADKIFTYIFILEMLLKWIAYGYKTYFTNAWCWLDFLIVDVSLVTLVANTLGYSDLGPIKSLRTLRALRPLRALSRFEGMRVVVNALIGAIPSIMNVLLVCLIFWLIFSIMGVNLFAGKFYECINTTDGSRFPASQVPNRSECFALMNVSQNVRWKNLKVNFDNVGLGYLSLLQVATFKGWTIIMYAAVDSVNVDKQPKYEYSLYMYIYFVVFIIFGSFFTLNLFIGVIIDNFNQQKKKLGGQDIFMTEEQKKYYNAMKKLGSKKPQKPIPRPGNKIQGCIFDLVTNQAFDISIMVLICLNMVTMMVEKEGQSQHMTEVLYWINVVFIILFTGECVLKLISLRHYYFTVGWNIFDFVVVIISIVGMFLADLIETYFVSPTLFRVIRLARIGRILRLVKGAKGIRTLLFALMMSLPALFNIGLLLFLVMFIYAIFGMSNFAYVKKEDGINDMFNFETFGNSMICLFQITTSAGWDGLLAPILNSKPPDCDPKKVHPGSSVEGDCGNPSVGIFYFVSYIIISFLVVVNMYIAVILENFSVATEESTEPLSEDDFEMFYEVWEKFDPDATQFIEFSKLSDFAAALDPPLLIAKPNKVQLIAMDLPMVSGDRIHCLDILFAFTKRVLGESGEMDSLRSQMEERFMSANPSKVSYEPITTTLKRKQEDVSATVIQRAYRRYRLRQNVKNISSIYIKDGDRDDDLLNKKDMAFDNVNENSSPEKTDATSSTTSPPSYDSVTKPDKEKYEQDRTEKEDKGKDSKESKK
T1 sequence (Q07699 19-218, further chain): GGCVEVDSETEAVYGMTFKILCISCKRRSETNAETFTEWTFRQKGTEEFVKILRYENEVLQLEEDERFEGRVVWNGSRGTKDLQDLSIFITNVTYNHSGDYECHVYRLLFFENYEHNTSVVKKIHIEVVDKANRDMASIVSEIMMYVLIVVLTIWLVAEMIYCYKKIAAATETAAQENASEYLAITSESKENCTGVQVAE
T2 sequence (O60939 30-215): as the sequence (O60939 30-215) above
T2 sequence (Q07699 19-218, further chain): as the sequence (Q07699 19-218, further chain) above
T2 sequence (Q15858 other isoform, or with tags, fused parts or gaps D816N): as the sequence (Q15858 other isoform, or with tags, fused parts or gaps) above, with D816N counted along it

CC(C)C[C@H](NC(=O)[C@H](CC(=O)O)NC(=O)[C@H](Cc1ccc(O)cc1)NC(=O)[C@H](CCCCN)NC(=O)[C@@H]1CSSC[C@@H]2NC(=O)[C@H](CCCCN)NC(=O)[C@H](CC(=O)O)NC(=O)[C@H](CC(N)=O)NC(=O)[C@H](CO)NC(=O)[C@@H]3CCCN3C(=O)[C@H](CC(N)=O)NC(=O)[C@@H]3CSSC[C@H](NC(=O)[C@H](C(C)C)NC(=O)[C@H](CC(C)C)NC(=O)[C@H](CO)NC(=O)[C@H](CO)NC(=O)[C@H](CO)NC(=O)[C@H](CCCCN)NC(=O)[C@H](CSSC[C@H](NC(=O)[C@H](C)N)C(=O)N[C@@H](CC(C)C)C(=O)NCC(=O)N[C@@H](Cc4ccccc4)C(=O)NCC(=O)N[C@@H](CCC(=O)O)C(=O)N[C@@H](CCCCN)C(=O)N3)NC2=O)C(=O)N[C@@H](CO)C(=O)N[C@@H](CCC(N)=O)C(=O)N[C@@H](CCCCN)C(=O)N[C@@H](Cc2c[nH]cn2)C(=O)N[C@@H](CCCCN)C(=O)N[C@@H](Cc2c[nH]c3ccccc23)C(=O)N1)C(=O)O [Ca2a] (H-ACLGFGEKCNPSNDKCCKSSSLVCSQKHKWCKYDL-OH; disulfide 2-17, 9-24, 16-31 (inferred); N-terminus and C-terminus assumed)
half-activation voltage of Nav1.7 ([1]; control −20.1 ± 1.1 mV, mean ± SEM): −18.9 ± 1.3 mV
threshold of initial activation voltage, active voltage of peak current, reversal potential of Nav1.7 (I–V) [1]: did not change
adverse effects [2]: does not cause significant adverse effects
latency time, hot plate ([3]; 50 μg/kg i.p.): 12.9 ± 0.8 s
latency time, hot plate ([3]; 100 μg/kg i.p.): 15.4 ± 1.2 s
latency time, hot plate ([3]; 200 μg/kg i.p.): 18.1 ± 1.6 s
inactivation time constant of Nav1.7/D816N [4]: did not alter inactivation time constant
